Activity calls are given as the source filed them. The calls are words filed in the database; no cut-off is given here.
Tests used:
cells [1] = format: functional, cell-based; conditions: Homo sapiens, UCH2, 72 h
Description: Antiproliferative activity against human UCH2 cells measured after 72 hrs by alamar blue assay

cells [2] = format: functional, cell-based; conditions: Homo sapiens, UCH1, 72 h
Description: Antiproliferative activity against human UCH1 cells measured after 72 hrs by alamar blue assay

[3] = biological target: T1, Epidermal growth factor receptor (Homo sapiens, UniProt P00533); format: cell-based;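 further: human A431 cells pretreated 90 min, then EGF stimulated, sandwich ELISA measured decrease in EGF-induced receptor autophosphorylation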
Description: Inhibition of EGFR in human A431 cells assessed as reduction in EGF-stimulated EGFR autophosphorylation preincuabted for 90 mins followed by EGF-stimulation by sandwich-ELISA

[4] = biological target: T1, Epidermal growth factor receptor; experiment: Inhibition of EGFR in human UCH1 cells assessed as reduction in EGF-induced EGFR phosphorylation at Y1068 residue at 10 uM preincubated for 4 hrs followed by EGF--stimulation and measured after 15 mins by Western blot analysis relative to control; format: cell-based
[5] = biological target: T2, Cyclin-G-associated kinase (Homo sapiens, UniProt O14976); experiment: Binding affinity to wild-type human partial length GAK (G13 to Y338 residues) expressed in bacterial expression system by Kinomescan method
T2 sequence (O14976 whole entry): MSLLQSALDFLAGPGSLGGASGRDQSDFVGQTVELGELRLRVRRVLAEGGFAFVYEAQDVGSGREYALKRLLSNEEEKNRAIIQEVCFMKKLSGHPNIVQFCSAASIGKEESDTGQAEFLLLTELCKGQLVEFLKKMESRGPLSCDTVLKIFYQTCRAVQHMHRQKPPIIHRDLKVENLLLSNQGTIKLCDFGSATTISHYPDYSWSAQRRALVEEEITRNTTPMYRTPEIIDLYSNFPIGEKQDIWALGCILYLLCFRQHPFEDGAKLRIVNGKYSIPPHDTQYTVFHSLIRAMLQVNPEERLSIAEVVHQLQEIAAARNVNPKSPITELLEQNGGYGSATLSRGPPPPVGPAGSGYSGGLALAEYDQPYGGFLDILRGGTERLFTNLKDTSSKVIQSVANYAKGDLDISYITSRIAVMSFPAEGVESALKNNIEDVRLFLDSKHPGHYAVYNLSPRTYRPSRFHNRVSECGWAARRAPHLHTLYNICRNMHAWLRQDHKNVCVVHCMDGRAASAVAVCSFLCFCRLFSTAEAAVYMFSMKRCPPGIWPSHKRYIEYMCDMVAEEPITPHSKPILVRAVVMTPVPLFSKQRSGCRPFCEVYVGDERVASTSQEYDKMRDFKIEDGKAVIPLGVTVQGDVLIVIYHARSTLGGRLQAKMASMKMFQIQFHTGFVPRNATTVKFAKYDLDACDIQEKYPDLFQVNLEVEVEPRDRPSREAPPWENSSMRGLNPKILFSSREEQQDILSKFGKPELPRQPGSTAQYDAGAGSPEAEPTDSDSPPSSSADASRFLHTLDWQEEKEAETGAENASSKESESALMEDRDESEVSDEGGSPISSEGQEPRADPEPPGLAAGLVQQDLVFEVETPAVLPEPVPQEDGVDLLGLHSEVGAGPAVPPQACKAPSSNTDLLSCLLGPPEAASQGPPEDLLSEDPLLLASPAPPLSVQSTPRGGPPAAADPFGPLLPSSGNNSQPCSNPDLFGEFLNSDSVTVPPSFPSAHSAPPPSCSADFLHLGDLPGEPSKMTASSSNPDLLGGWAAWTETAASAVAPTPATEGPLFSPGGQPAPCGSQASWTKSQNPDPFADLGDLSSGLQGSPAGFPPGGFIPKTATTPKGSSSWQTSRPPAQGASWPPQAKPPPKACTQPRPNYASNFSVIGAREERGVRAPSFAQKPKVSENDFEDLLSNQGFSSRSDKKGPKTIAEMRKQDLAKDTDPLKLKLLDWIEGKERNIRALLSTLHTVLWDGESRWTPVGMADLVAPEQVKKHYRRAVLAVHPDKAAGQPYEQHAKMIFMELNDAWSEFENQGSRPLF

[6] = biological target: Receptor-interacting serine/threonine-protein kinase 2 (Homo sapiens) (UniProt O43353); experiment: Binding affinity to RIPK2 in human SUM159 cell lysates by multiplexed inhibitor bead profiling-based LC-MS/MS analysis; format: subcellular; conditions: Lysate
[7] = biological target: T1, Epidermal growth factor receptor; experiment: Inhibition of EGFR in human UCH2 cells assessed as reduction in EGF-induced EGFR phosphorylation at Y1068 residue at 10 uM preincubated for 4 hrs followed by EGF--stimulation and measured after 15 mins by Western blot analysis relative to control; format: cell-based

T1 sequence (P00533 whole entry): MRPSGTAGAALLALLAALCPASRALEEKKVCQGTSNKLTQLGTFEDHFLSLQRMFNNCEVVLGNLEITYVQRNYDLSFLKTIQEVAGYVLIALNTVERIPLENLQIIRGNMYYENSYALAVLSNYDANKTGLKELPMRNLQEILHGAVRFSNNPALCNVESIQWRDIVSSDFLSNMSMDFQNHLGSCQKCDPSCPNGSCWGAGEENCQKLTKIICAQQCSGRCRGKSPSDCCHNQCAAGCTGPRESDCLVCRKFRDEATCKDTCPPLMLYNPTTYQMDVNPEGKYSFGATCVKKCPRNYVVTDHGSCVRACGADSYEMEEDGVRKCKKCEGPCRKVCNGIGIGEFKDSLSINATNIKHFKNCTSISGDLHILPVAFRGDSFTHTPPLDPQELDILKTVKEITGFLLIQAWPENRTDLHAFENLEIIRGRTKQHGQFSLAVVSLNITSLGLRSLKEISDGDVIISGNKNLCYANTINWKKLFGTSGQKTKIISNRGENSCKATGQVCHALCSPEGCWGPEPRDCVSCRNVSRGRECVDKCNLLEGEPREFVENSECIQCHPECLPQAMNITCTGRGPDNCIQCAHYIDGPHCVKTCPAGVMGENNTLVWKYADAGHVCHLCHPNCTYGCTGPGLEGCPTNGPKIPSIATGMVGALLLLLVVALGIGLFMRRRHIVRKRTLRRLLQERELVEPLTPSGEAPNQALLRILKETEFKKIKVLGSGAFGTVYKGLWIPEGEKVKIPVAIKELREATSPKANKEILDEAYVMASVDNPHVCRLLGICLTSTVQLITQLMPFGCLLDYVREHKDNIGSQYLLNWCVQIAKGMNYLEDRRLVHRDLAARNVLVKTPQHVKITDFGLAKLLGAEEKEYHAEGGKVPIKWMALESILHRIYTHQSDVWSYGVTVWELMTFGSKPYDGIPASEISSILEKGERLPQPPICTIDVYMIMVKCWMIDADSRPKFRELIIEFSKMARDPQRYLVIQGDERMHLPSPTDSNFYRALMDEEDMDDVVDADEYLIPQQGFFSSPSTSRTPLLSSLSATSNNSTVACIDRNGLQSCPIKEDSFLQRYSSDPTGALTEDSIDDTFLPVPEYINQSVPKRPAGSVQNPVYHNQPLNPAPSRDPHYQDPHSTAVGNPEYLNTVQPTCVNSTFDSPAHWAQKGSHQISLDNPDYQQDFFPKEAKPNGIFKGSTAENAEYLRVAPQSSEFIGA
Chain of Receptor-interacting serine/threonine-protein kinase 2 (Homo sapiens) (O43353 whole entry): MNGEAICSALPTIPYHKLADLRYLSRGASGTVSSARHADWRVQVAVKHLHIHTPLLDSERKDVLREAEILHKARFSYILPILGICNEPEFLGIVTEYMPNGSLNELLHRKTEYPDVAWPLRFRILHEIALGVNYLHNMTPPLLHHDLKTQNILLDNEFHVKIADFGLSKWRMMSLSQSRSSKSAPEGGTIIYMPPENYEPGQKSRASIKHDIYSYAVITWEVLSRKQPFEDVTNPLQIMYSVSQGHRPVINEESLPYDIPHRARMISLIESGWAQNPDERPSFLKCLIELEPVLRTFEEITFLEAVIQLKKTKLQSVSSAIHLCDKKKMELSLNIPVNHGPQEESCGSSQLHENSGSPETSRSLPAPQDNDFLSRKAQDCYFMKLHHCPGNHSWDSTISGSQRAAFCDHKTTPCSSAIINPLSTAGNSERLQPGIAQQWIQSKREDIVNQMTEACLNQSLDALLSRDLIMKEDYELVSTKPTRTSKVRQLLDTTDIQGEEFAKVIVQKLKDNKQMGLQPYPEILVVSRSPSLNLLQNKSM

`C#Cc1cccc(Nc2ccnc3cc(OC)c(OC)cc23)c1` gave an IC50 (cells [1]) greater than 50 µM, an IC50 (cells [2]) of 2.1 µM and an IC50 [3] of 0.042 µM. For the same compound, the inhibition [4] was 60.8%, the Kd [5] was 0.0076 µM and the Activity [6] was “Active”. The inhibition [7] was 71.3%.
